Results reported in ChEMBL document CHEMBL5252515, “Discovery of 6-Amino-2-{[(1S)-1-methylbutyl]oxy}-9-[5-(1-piperidinyl)pentyl]-7,9-dihydro-8H-purin-8-one (GSK2245035), a Highly Potent and Selective Intranasal Toll-Like Receptor 7 Agonist for the Treatment of Asthma” (J Med Chem, 2016).

Columns and labels:
Type in all cases: cell-based
[1] = biological target: T1, Toll-like receptor 7 (Homo sapiens, UniProt Q9NYK1); test: Agonist activity at TLR7 in cryopreserved human PBMC assessed as IFN-alpha production after 24 hrs by MSD assay
T1 sequence (Q9NYK1 whole entry): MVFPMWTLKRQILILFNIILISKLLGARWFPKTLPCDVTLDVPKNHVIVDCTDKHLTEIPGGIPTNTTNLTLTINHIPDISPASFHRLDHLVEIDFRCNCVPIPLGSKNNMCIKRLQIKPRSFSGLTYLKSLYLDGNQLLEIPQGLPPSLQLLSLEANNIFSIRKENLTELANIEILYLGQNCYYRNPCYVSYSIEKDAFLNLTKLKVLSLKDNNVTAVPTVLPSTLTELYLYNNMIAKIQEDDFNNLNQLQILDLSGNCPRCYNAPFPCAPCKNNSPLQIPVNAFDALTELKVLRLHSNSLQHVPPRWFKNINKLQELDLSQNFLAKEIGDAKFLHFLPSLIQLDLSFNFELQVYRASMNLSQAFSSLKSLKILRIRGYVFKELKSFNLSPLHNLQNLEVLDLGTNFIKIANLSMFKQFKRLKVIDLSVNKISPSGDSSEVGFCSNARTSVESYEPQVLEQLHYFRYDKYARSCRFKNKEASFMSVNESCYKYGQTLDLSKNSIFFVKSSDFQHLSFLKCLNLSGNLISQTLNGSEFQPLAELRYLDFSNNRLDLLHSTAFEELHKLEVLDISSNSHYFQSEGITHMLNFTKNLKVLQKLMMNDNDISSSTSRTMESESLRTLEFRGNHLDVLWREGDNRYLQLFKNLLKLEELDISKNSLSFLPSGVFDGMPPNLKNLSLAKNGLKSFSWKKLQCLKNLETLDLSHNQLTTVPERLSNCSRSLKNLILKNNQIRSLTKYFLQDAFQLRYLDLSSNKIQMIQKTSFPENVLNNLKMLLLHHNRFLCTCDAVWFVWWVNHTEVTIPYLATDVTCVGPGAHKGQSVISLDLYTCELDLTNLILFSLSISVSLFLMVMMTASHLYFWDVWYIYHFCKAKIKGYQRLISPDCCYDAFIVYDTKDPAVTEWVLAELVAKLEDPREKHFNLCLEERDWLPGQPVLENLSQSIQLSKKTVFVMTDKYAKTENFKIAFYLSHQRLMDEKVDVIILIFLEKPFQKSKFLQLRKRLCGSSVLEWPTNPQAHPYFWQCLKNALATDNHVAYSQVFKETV

[2] = biological target: T1, Toll-like receptor 7; test: Agonist activity at TLR7 in human PBMC assessed as IFN-alpha production after 24 hrs by electrochemiluminescence assay
[3] = biological target: T1, Toll-like receptor 7; test: Agonist activity at TLR7 in human PBMC assessed as TNF-alpha production after 24 hrs by electrochemiluminescence assay

EC50 [1] [nM] | EC50 [2] [nM] | EC50 [3] [nM] | Structure (SMILES)
126 |  |  | CCCCOc1nc(N)c2nc(O)n(Cc3ccccc3)c2n1
 | 0.631 | 631 | CCCCOc1nc(N)c2[nH]c(=O)n(CCCCC3CCNCC3)c2n1
316 |  |  | CCCCOc1nc(N)c2nc(O)n(CCCN3CCCCC3)c2n1
316 |  |  | CCCCOc1nc(N)c2[nH]c(=O)n(CCCCC3CCCCO3)c2n1 (stereo not given)
200 |  |  | CCCCOc1nc(N)c2[nH]c(=O)n(CC3CCOCC3)c2n1
39.8 |  |  | CCCCOc1nc(N)c2[nH]c(=O)n(CCCCC3CCCOC3)c2n1 (stereo not given)
 | 1 | 12600 | CC(C)Oc1nc(N)c2[nH]c(=O)n(CCCCCN3CCCCC3)c2n1
200 |  |  | CCCCOc1nc(N)c2[nH]c(=O)n(CCC3CCOCC3)c2n1
 | 200 | 3980 | CCCCOc1nc(N)c2[nH]c(=O)n(CCCCN3CCOCC3)c2n1
 | 1.58 | 6310 | CCCCOc1nc(N)c2[nH]c(=O)n(CCCCN3CCCCCC3)c2n1
794 |  |  | CCCCOc1nc(N)c2[nH]c(=O)n(CCCCCCC3CCOCC3)c2n1
63.1 |  |  | CCCCOc1nc(N)c2[nH]c(=O)n(CCCC3CCOCC3)c2n1
2510 |  |  | CCCCOc1nc(N)c2[nH]c(=O)n(CCN3CCCCC3)c2n1
100 |  |  | CCCCOc1nc(N)c2[nH]c(=O)n(CCCCC3CCOCC3)c2n1
 | 39.8 | 126 | CCC[C@H](C)Oc1nc(N)c2[nH]c(=O)n(CCCCC3CCOCC3)c2n1
63.1 |  |  | CCCCOc1nc(N)c2[nH]c(=O)n(CCCCC3CCOC3)c2n1 (stereo not given)
 | 0.631 | 2510 | CCCC[C@H](C)Oc1nc(N)c2[nH]c(=O)n(CCCCN3CCCCC3)c2n1
 | 7.94 | 5010 | CCCCOc1nc(N)c2[nH]c(=O)n(CCCCCN3CCCCC3)c2n1
50.1 |  |  | CCCCOc1nc(N)c2[nH]c(=O)n(CCCCCC3CCOCC3)c2n1
 | 6.31 | 6310 | CCCCOc1nc(N)c2[nH]c(=O)n(CCCCN3CCCCC3)c2n1
 | 0.501 | 10000 | CC[C@H](C)Oc1nc(N)c2[nH]c(=O)n(CCCCCN3CCCCC3)c2n1
158 |  |  | CCCCOc1nc(N)c2[nH]c(=O)n(CCCCC3CCCO3)c2n1 (stereo not given)
 | 0.794 | 6310 | CCCCOc1nc(N)c2[nH]c(=O)n(CCCCC3CCN(C(C)C)CC3)c2n1
 | 1.58 | 2000 | CCCCOc1nc(N)c2[nH]c(=O)n(CCCCCCN3CCCCC3)c2n1
 | 0.794 | 2510 | CCC[C@H](C)Oc1nc(N)c2[nH]c(=O)n(CCCCN3CCCCC3)c2n1
 | 2.51 | 1000 | CCCCOc1nc(N)c2[nH]c(=O)n(CCCCC3CCCNC3)c2n1 (stereo not given)
 | 1000 | 12600 | Nc1nc(OC2CCCC2)nc2c1[nH]c(=O)n2CCCCN1CCCCC1
 | 2.51 | 6310 | CCCCOc1nc(N)c2[nH]c(=O)n(CCCCN3CCN(C(C)C)CC3)c2n1
 | 20 | 15800 | CCCCOc1nc(N)c2[nH]c(=O)n(CCCCN3CCCC3)c2n1
